In patent publication US9212349B2, “Method to produce virus in cultured cells” (priority 2011, dated 2015):

What was measured:
HCMV (AD169 strain) = assay type: cell-based, human cytomegalovirus; settings: for HCMV production relative to no treatment: Example 2, MRC5, 0.5 IU/cell, FIG. 2; for HCMV production relative to no treatment / HCMV yield, fold change relative to no treatment (NT): 96 h; for HCMV yield, fold change relative to no treatment (NT): MRC5, 0.5 IU/cell, additive 2 h after infection, OA/LA/LLA up to 100 μM, EPA 75 μM, DHA 50 μM, AG 250 μM, cholesterol 13 μM; for Effect of including the fatty acid on the HCMV yield increase given by aminoguanidine: in the presence of aminoguanidine
Method: Cells were infected with the AD169 strain of HCMV at a multiplicity of 0.5 infectious units/cell, and immediately following a 2-hour adsorption period, cells were fed with medium (Dulbecco's Modified Eagle Medium, DMEM) containing 10% fetal calf serum plus various fatty acids, cholesterol and carbonyl scavenging compound. At 96 hours post infection, infectious virus in the medium was assayed by fluorescent focus assay using antibody to the HCMV IE1 protein.
Briefly, About 90% confluent MRC5 human fibroblasts were infected with HCMV at a multiplicity of 0.5 IU/cell. Two hours after infection, medium was replaced with fresh medium containing 10% fetal calf serum and either of oleic acid (OA, up to about 100 μM), linoliec acid (LA, up to about 100 μM), α-linolenic acid (LLA, up to about 100 μM), eicosapentaenoic acid (EPA, up to about 75 μM), or docosahexaenoic acid (DHA, up to about 50 μM). The experiment was also performed in the presence of either aminoguanidine (AG, up to about 250 μM) or cholesterol (chol., up to about 13 μM). Virus production at 96 hours after infection was determined by fluorescent focus assay in MRC-5 cells and shown as a fold change relative to no treatment (NT) which was 5×10^5 infectious units. The fold-changes are the average of two independent infections.
Briefly, about 90% confluent MRC5 fibroblasts were infected with HCMV at a multiplicity of 0.5 IU/cell. Two hours after infection, medium was replaced with fresh medium containing 10% fetal calf serum and α-tocopherol (α-T) or aminoguanidine (AG) at indicated concentrations. Virus production at 96 h after infection was determined by fluorescent focus assay in which MRC-5 cells and shown as a fold change relative to no treatment (NT). The fold-changes are the average of two independent infections. Results are set out in FIG. 2.

VZV [1] = experiment: Yield of cell-free infectious VZV from infected MRC5 cells, plaque assay on ARPE-19 cells; assay type: cell-based, varicella zoster virus; settings: for VZV yield in comparison to no treatment: Example 5, lipids at 6 hpi plus 10 μM αT, HSA, OSA 25 μM, sonicated immediately; for VZV yield in comparison to no treatment / VZV yield, fold change relative to NT: MOI 1:50, 72 h
Method: For this test, MRC5 cells (passage 20-25) were seeded at a density of 300.000 cell/100 mm culture dish and grown in 15 ml of DMEM containing 10% fetal calf serum plus 2 mM glutamax (Invitrogen) at 35° C. A lipid mixture (LM-1, 1 ml/liter medium, Sigma Aldrich #L5146) was added to the cells either at the time of seeding or 1 day after seeding. Three days later, the culture medium was replaced with 10 ml growth medium containing 50 mM sucrose as a stabilizer. The cells were further incubated for 3 days and growth medium was replaced with fresh medium containing no sucrose. After cells reached confluence, they were infected with VZV by adding infected cells (1 infected cell/50 uninfected cells; infected cells were from a preparation frozen in a solution of 10% DMSO plus 90% fetal calf serum and stored in liquid nitrogen). At the time of infection, the cultures were re-fed with DMEM containing 10% fetal calf serum plus 2 mM glutamax. Arachidonic acid (AA)+alpha-tocopherol (αT) or DHA+αT were added at the indicated times. 72 hours after infection, cells were washed twice with PBS, and incubated in 10 ml of PBS containing 50 mM ammonium chloride for 50 minutes at 4° C. The cells were harvested and frozen in PSGC buffer (Harper et al., Arch Virol 143:1163-70, 1998) at −80° C. Infectious virus was subsequently quantified by plaque assay of sonicated cells on ARPE-19 cells (American Type Culture Collection). Results are set out in FIG. 3.
Briefly, in these repeat experiments, MRC5 cells were infected with VZV at an MOI=1:50. AA, DHA, and αT were added to the cells at 6 hpi as indicated. 72 hours after infection, the cells were harvested into PSGC buffer and frozen at −80° C. for later processing. After thawing, the cells were sonicated and the yield of cell free VZV quantified by standard plaque assay on ARPE-19 cells. Fold change relative to no treatment (NT) is shown. […] The fold-changes are the average of two independent infections.
In brief, MRC5 cells were infected with VZV at an M01=1:50. Lipid mixture 1(LM-1) was added to the cells immediately after cell seeding. At 6 hours after infection, up to about 100 μM AA or […] was added to cells together with up to about 10 μM αT. 72 hours after infection, the cells were harvested into PSGC buffer and either frozen at −80° C. and sonicated later for the release of virus (frozen cells) or immediately sonicated after harvesting and supernatants containing the cell-free VZV were frozen at −80° C. (frozen sup.) prior to titration. Cell-free VZV yield was quantified by plaque assay on APRE-19 cells. Fold change relative to no treatment (NT) is shown. The numbers above the bars indicate the amount of virus obtained per ml in the corresponding treatment. The results are set out in FIG. 5.
Briefly, MRC5 cells were infected with VZV at an MOI=1:50. Six hours after infection cells were treated with indicated combinations of lipids plus 10 μM αT. Hexacosanoic acid (HSA) and octacosanoic acid (OSA) were dissolved in 20 mg/ml α-cyclodextin (Sigma-Aldrich) in PBS by sonication and added to a solution of 10 mg/ml fatty acid-free BSA (Sigma-Aldrich) in PBS (1:1, v/v) to give a stock concentration of 10 mM for each fatty acid. HSA, OSA, and DHA were used at 25 μM, and AA was used at 25 μM. Two sets of fatty acid concentrations was used for combination treatments: DHA, AA, and HSA was either added at concentrations of 25 μM, 100 μM, and 25 μM (high), or 10 μM, 50 μM, and 10 μM (low), respectively. 72 hours after infection, the cells were harvested into PSGC buffer, sonicated immediately and the yield of cell free VZV quantified by plaque assay on ARPE-19 cells. Fold change relative to no treatment (NT) is shown. The fold-changes are the average of two independent infections.
Briefly, MRC5 cells were grown in DMEM containing 10% fetal calf serum, 2 mM glutamax (Invitrogen) at 35° C. as described in the text. […]

VZV [2] = experiment: as above; assay type: cell-based, varicella zoster virus; settings: Example 6; MOI 1:100, 72 hours after infection; HSA, DHA 25 μM, AA 100 μM, with 10 μM α-T; cholesterol 13 μM
MRC5 cells = experiment: Cytotoxicity evident upon visual inspection in VZV-infected MRC5 cells; assay type: cell-based, human; settings: 100 μM
[3] = 25 μM fatty acid at 6 hpi, absence of αT

Question: For `Cc1c(C)c2c(c(C)c1O)CC[C@@](C)(CCC[C@H](C)CCC[C@H](C)CCCC(C)C)O2` [αT, alpha-tocopherol], which “HCMV production relative to no treatment” value (HCMV (AD169 strain)) is on record?
Answer: enhances the production of HCMV

Question: Which results are given for `CCCCCCCCCCCCCCCCCCCCCCCCCC(=O)O` [HSA, hexacosanoic acid]?
Answer: VZV yield in comparison to no treatment (VZV [1]): improved virus yields; VZV yield relative to no treatment (VZV [2]): elevated the yield of VZV

Question: For `CCCCCCCC/C=C\CCCCCCCC(=O)O` [OA, oleic acid], which “Reduction of VZV production, factor” value (VZV [1]; 100 μM) is on record?
Answer: 2 fold

Question: What about the Cytotoxicity (MRC5 cells; absence of αT) of the same compound?
Answer: without causing observable cellular toxicity

Question: And the “HCMV yield, fold change relative to no treatment (NT)” value (HCMV (AD169 strain))?
Answer: reduced the yield

Question: What about the “Effect of including the fatty acid on the HCMV yield increase given by aminoguanidine” value (HCMV (AD169 strain); MRC5, 96 h) of the same compound?
Answer: reduced

Question: `CC/C=C\C/C=C\C/C=C\C/C=C\C/C=C\CCCC(=O)O` [EPA, eicosapentaenoic acid] was tested. Which “HCMV yield, fold change relative to no treatment (NT)” value (HCMV (AD169 strain)) did it give?
Answer: 2.5 fold

Question: How did the “VZV yield in comparison to no treatment” value (VZV [1]) turn out when `CCCCCCCCCCCCCCCCCCCCCCCCCCCC(=O)O` [OSA, octacosanoic acid] was run?
Answer: improved virus yields

Question: `CC(C)CCC[C@@H](C)[C@H]1CC[C@H]2[C@@H]3CC=C4C[C@@H](O)CC[C@]4(C)[C@H]3CC[C@]12C` [cholesterol] was tested. Which “HCMV yield, fold change relative to no treatment (NT)” value (HCMV (AD169 strain)) did it give?
Answer: no effect

Question: And the “Effect of cholesterol on the enhancing effects of fatty acids on HCMV yield” value (HCMV (AD169 strain); MRC5, 96 h, cholesterol up to about 13 μM)?
Answer: did not improve, and in some cases inhibited

Question: With `CCCCC/C=C\C/C=C\C/C=C\C/C=C\CCCC(=O)O` [AA, Arachidonic acid] as the compound, how does the “VZV yield, fold change relative to NT” value (VZV [1]; [3]) read?
Answer: enhanced the yield of virus

Question: And the “VZV yield, fold change relative to NT” value (VZV [1]; 25 μM fatty acid at 6 hpi, presence of αT)?
Answer: increased the virus yield

Question: What about the “VZV yield, fold change relative to NT” value (VZV [1]; 100 μM fatty acid at 6 hpi, absence of αT) of the same compound?
Answer: inhibited virus production

Question: What about the “VZV yield, fold change relative to NT” value (VZV [1]; 100 μM fatty acid at 6 hpi, presence of αT) of the same compound?
Answer: 5 fold

Question: And the “VZV yield relative to no treatment” value (VZV [2])?
Answer: elevated the yield of VZV

Question: Which results are given for `CCCCC/C=C\C/C=C\CCCCCCCC(=O)O` [LA, linoleic acid]?
Answer: HCMV yield, fold change relative to no treatment (NT) (HCMV (AD169 strain)): little effect on the yield; Effect of including the fatty acid on the HCMV yield increase given by aminoguanidine (HCMV (AD169 strain); MRC5, 96 h): reduced

Question: With `N=C(N)NN` [aminoguanidine] as the compound, how does the “HCMV production relative to no treatment” value (HCMV (AD169 strain)) read?
Answer: enhances the production of HCMV

Question: And the “HCMV yield, fold change relative to no treatment (NT)” value (HCMV (AD169 strain))?
Answer: about 2.6 fold

Question: `CC/C=C\C/C=C\C/C=C\C/C=C\C/C=C\C/C=C\CCC(=O)O` [DHA, docosahexaenoic acid] was tested. Which “VZV yield, fold change relative to NT” value (VZV [1]; [3]) did it give?
Answer: about 1.5 fold

Question: What about the Cytotoxicity (MRC5 cells; absence of αT) of the same compound?
Answer: toxic

Question: And the Cytotoxicity (MRC5 cells; presence of αT)?
Answer: toxic

Question: And the “HCMV yield, fold change relative to no treatment (NT)” value (HCMV (AD169 strain))?
Answer: 4.6 fold

Question: How did the “HCMV yield, fold change relative to no treatment (NT)” value (HCMV (AD169 strain)) turn out when `CC/C=C\C/C=C\C/C=C\CCCCCCCC(=O)O` [LLA, α-linolenic acid] was run?
Answer: about 1.2 fold

Question: And the “Effect of including the fatty acid on the HCMV yield increase given by aminoguanidine” value (HCMV (AD169 strain); MRC5, 96 h)?
Answer: reduced
